Source: US5384243A, “Method for screening an agent for its ability to prevent cell transformation” (priority 1992, dated 1995)

Tests used:
m5 mACHR = target: T1, m5 mACHR (Homo sapiens, UniProt P08912); test: Focus assay after transfection of NIH/3T3 cells, pDS m5; format: cell-based; details: for Focus-forming activity: pDS m5
T1 construct: carbachol-dependent focus formation
T1 sequence (P08912 1-532): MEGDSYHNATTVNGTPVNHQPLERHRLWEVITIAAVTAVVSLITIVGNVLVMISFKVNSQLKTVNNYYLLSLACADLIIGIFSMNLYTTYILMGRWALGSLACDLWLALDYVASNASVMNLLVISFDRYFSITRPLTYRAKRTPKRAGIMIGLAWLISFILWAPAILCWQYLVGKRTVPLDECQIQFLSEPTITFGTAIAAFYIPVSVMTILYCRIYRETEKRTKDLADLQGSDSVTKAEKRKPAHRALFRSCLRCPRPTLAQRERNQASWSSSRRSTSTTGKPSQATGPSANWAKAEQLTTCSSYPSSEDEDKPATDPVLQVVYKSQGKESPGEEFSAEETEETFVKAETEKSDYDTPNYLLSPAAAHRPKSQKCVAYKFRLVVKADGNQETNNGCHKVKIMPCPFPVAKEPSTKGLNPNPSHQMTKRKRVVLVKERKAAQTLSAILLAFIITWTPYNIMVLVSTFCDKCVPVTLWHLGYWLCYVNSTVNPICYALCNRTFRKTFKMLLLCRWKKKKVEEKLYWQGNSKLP
From the text: (§1) Transfection. […] Mass populations expressing the transfected neogene were selected for their ability to grow in the presence of geneticin (G418) (Gibco). Transformed foci were scored in stained plates of NIH/3T3 2-3 weeks after transfection. Individual G418 colonies or transformed foci were isolated with the aid of cloning cylinders, and maintained in Dulbecco's Modified Eagle Medium containing 10% calf serum.
(§2) DNA Constructs. […] Analysis of Receptor Expression.
(§3) Foci of transformation were scored after 2-3 weeks. The efficiency of transfection was determined by scoring neo resistant colonies in medium containing G418 (0.750 mg/ml). […] Results represent the average of three independent experiments.

NIH/3T3 cells [1] = test: Focus assay after transfection of NIH/3T3 cells, pDS vector; format: cell-based, murine
From the text: as §1, §2, §3

NIH/3T3 cells [2] = test: PI hydrolysis in neo NIH/3T3 cells; format: cell-based, murine; details: Mus musculus, NIH3T3, 1 h, binding 0, read-out: PI Hydrolysis Maximal activation
From the text: Phosphatidylinositol Hydrolysis.
EC50, half maximal concentration.

m1, m2, m3 or m4 mACHRs = test: cAMP assay without forskolin; details: 1 mM carbachol, 10 min
NIH/3T3 cells [3] = details: neo, binding 0
m2 mACHR [4] = target: T2, m2 mACHR (Homo sapiens, UniProt P08172); test: Focus assay after transfection of NIH/3T3 cells, pDS m2; format: cell-based; set-up: expressed in transfected cells; host or cells: NIH/3T3 murine fibroblasts (plasmid pDS m2); details: for Focus-forming activity: pDS m2
T2 sequence (P08172 1-466): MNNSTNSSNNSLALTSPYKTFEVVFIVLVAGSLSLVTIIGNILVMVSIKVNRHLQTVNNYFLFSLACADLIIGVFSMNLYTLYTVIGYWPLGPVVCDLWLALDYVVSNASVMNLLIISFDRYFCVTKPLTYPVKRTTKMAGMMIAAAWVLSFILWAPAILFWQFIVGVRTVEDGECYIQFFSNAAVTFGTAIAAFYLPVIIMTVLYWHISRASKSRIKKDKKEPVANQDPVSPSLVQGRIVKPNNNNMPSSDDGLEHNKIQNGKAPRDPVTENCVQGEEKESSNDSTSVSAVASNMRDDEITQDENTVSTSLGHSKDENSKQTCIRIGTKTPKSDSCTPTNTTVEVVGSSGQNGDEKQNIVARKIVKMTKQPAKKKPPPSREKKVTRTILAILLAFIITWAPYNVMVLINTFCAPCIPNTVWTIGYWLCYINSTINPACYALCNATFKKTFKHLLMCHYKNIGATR
From the text: as §1, §2, §3

m4 mACHR [5] = target: T3, m4 mACHR (Homo sapiens, UniProt P08173); test: Focus assay after transfection of NIH/3T3 cells, pDS m4; format: cell-based; set-up: expressed in transfected cells; host or cells: NIH/3T3 murine fibroblasts (plasmid pDS m4); details: for Focus-forming activity: pDS m4
T3 sequence (P08173 1-479): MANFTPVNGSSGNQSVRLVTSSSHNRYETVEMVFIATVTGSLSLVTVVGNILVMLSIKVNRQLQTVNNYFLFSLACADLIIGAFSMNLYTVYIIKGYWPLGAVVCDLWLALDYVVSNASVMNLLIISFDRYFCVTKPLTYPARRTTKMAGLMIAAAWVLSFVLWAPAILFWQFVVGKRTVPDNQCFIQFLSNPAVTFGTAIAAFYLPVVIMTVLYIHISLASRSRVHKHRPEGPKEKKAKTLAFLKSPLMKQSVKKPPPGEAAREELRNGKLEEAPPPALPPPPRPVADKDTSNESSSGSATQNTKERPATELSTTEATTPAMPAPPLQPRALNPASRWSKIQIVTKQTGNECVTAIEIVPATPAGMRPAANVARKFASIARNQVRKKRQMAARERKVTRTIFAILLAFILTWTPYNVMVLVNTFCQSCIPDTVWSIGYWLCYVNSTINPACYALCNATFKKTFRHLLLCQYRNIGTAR
From the text: as §1, §2, §3

m2 mACHR [6] = target: T2, m2 mACHR; test: cAMP assay, forskolin-stimulated, m2 clones; format: cell-based; set-up: expressed in transfected cells; host or cells: NIH/3T3 murine fibroblasts (plasmid pDS m2); details: 1 mM carbachol, m2 (FIG. 4)
m4 mACHR [7] = target: T3, m4 mACHR; test: cAMP assay, forskolin-stimulated, m4 clones; format: cell-based; set-up: expressed in transfected cells; host or cells: NIH/3T3 murine fibroblasts (plasmid pDS m4); details: 1 mM carbachol, m4 (FIG. 4)
m2 mACHR [8] = target: T2, m2 mACHR
NIH/3T3 cells [9] = test: [3H]NMS binding to membranes of vector (pDS, neo) transfectants
[10] = test system: human muscarinic acetylcholine receptors; test: Focus assay after transfection of NIH/3T3 cells, mACHR genes in general; format: cell-based; details: atropine 10 μM
From the text: as §1, §2, §3

**Q.** What does the source list for C[N+](C)(C)CCOC(N)=O [carbachol]?
**A.** Focus-forming activity (m5 mACHR; carbachol 10^-4 M): 47 per pmol DNA; Focus-forming activity (m5 mACHR; carbachol 10^-6 M): < 5 per pmol DNA; foci of transformation in presence of carbachol (m5 mACHR; m5 transfectants): foci of transformation readily appeared; Focus-forming activity (NIH/3T3 cells [1]; carbachol 10^-4 M): < 1 per pmol DNA; Focus-forming activity (NIH/3T3 cells [1]; carbachol 10^-6 M): < 1 per pmol DNA; Emax (NIH/3T3 cells [2]): 100%; cAMP accumulation without forskolin (m1, m2, m3 or m4 mACHRs): did not accumulate detectable cAMP; Transformation Maximal transportation (NIH/3T3 cells [3]): 0; Focus-forming activity (m2 mACHR [4]; carbachol 10^-4 M): < 1 per pmol DNA; Focus-forming activity (m2 mACHR [4]; carbachol 10^-6 M): < 1 per pmol DNA; foci of transformation in presence of carbachol (m2 mACHR [4]; m2 transfected cultures): not m2 or m4; Focus-forming activity (m4 mACHR [5]; carbachol 10^-4 M): < 1 per pmol DNA; Focus-forming activity (m4 mACHR [5]; carbachol 10^-6 M): < 1 per pmol DNA; foci of transformation in presence of carbachol (m4 mACHR [5]; m4 transfected cultures): not m2 or m4; cAMP levels in forskolin treated cells (m2 mACHR [6]): decreased; cAMP levels in forskolin treated cells (m4 mACHR [7]): decreased

**Q.** C[N+]1(C)C2CC(OC(=O)C(CO)c3ccccc3)CC1C1OC12 (stereo not shown) [[^3 H]NMS, N-methylscopolamine] was tested. Which Binding (m2 mACHR [8]; G418 selected m2 clone (Table 3)) did it give?
**A.** 308 fmoles [^3 H]NMS/mg protein

**Q.** What about the “Binding [3H]NMS” value (m2 mACHR [8]; mass culture, pDS m2) of the same compound?
**A.** 90 fmoles [^3 H]NMS/mg protein

**Q.** And the “Binding [3H]NMS” value (NIH/3T3 cells [9]; mass culture, pDS)?
**A.** < 1 fmoles [^3 H]NMS/mg protein

**Q.** What about the Binding (NIH/3T3 cells [9]; neo clone (Table 3)) of the same compound?
**A.** 0 fmoles [^3 H]NMS/mg protein

**Q.** CN1[C@@H]2CC[C@H]1C[C@@H](OC(=O)C(CO)c1ccccc1)C2 (stereo partly shown) [atropine] was tested. Which “foci of transformation in cells maintained in atropine” value [10] did it give?
**A.** No foci of transformation were observed

**Q.** And the “carbachol induced focus-formation in presence of atropine” value ([10]; data not shown)?
**A.** abolished
